In US10828315B2 (Madrigal Pharmaceuticals, Inc., priority 2013, dated 2020):

Tests used:
[1] = system: human breast cancer cell line BT-474; test: Cytotoxicity assay (CellTiter-Glo, 72 h), BT-474; format: cell-based; conditions: BT-474, 72 hours, read-out: Cytotoxicity (IC50, nM) BT-474
Experimental: (§1) Cytotoxicity of SDC-TRAP molecules was determined in three cancer cell lines. […] 80 μL of CellTiter-Glo was added to each well, followed by room temperature incubation in the dark for 15 minutes. Cell was determined by luminescence. IC50 was calculated using XLfit™ software.

[2] = system: human urinary bladder cancer cell line RT-112; test: Cytotoxicity assay (CellTiter-Glo, 72 h), RT-112; format: cell-based; conditions: RT-112, 72 hours, read-out: Cytotoxicity (IC50, nM) RT-112
Experimental: as §1

[3] = system: human urinary bladder cancer cell line SW780; test: Cytotoxicity assay (CellTiter-Glo, 72 h), SW780; format: cell-based; conditions: SW780, 72 hours, read-out: Cytotoxicity (IC50, nM) SW-780
Experimental: as §1

[4] = Metabolite profiling and identification; format: in vitro ADME; design: key: —: Not detected; conditions: for Metabolite Glucuronidation: M+1 569.3; for Metabolite Hydroxylation + glucuronidatiom: M+1 585.3
Text: Metabolite Profiling and Identification: Metabolite profiling/identification for SDC-TRAP-0063 (M+1:880.3)

[5] = mouse, in vivo
Experimental: Using the 10 mM stock solutions of the SDC-TRAP molecule and its Hsp90i binding moiety and effector moiety in DMSO, spiking solutions were prepared at 0.025, 0.05, 0.1, 0.5, 1, 5, 10, 50, 100, 250, and 500 μM in DMSO. 5 μL of each spiking solution was added to a 96-deep well plate.
Quality control standards were prepared from 5 μL of 0.1, 1, and 10 μM calibration standard spiking solution added in triplicate into 96-deep well plate and adding 50 μL of matrix (plasma or homogenized tumor).
To prepare test samples, test plasma was diluted as needed using blank plasma.
Tumor samples were pulverized in liquid nitrogen, weighed, and homogenized in PBS at 5× volume to sample weight. 50 μL of unknown plasma or homogenized tumor sample was mixed with 5 μL of DMSO. The samples were extracted by precipitating calibration standards, QC standards, and unknown samples with 200 μL of internal standard solution. The samples were mixed by vortex at room temperature for approximately 1.5 minutes, then centrifuge at 2-8° C. 150 μL of supernatant was collected and 25 μL of water added. Samples were mixed and analyzed by LC-MS/MS.
Samples of plasma, heart and tumor were excised from a euthanized mouse, homogenized in PBS at 5 times tissue weight and diluted in 5 μL DMSO/50 μL sample. Prior to analysis, 55 μL samples and calibration standards were precipitated in 200 μL methanol in 96-well plates. Samples were mixed on a vortex mixer for 1.5 minutes at 1500 rpm at room temperature, then centrifuged at 4400 rpm for 10 minutes at 8° C. 150 μL of each supernatant was transferred to a well of a new 96-well plate, and 25 μL of water was added and mixed with the sample. […] For the analysis of samples from female SCID mice, a gradient of solvent A (water/0.1% formic acid) and B (acetonitrile/0.1% formic acid) was used as in Table 2 below.
Various SDC-TRAP molecules and appropriate controls were administered to mice and after various time points the plasma and tumor concentration of these molecules was determined.

[6] = Stability in cell culture media (Example 18); conditions: for Media (5 μM) % Remaining 1 h (37° C.)*: sum of both peaks
[7] = Artificial membrane permeability assay (PAMPA)
[8] = Mouse plasma stability protocol, up to 1 h (Examples 16-18); conditions: for % Remaining (1 h): % Remaining of parent after 1 h incubation in mouse plasma at 37° C. (10 μM); for Peak Area Ratio: SDC-TRAP-0063 incubated in mouse plasma; for Mouse (10 μM) % Remaining 1 h (37° C.)* / % Remaining (1 h, 37° C.): mouse plasma; for Mouse (10 μM) % Remaining 1 h (37° C.)*: sum of both peaks
Experimental: 150 ng/mL solution of SDC-TRAP-0002 in methanol was prepared using the internal standard spiking solution. This solution was used to precipitate all plasma samples in the study. 200 μL was pipetted into a 96 deepwell plate over dry ice. 10 μL of 1 mM stock in DMSO was added to a 1.5 mL microfuge tube, then 990 μL of plasma. Samples were mixed by vortex, then 50 μL of each sample was added in triplicate to a 96-well plate containing internal standard solution. This was designated the 0 hour time point sample. 250 μL of the remaining plasma sample was added to each of four 96 deepwell plates—one per time point. Samples were incubated at 37° C. with gentle shaking for 0.25, 0.5, and 1 hour. After each time point, one plate of each sample was removed from the shaker and placed on wet ice for approximately 2 minutes. 50 μL at plasma aliquots (in triplicate) were added to the deepwell plate containing internal standard solution. After the last time point was extracted, the 96 deepwell plate was vortexed, then centrifuged at 2-8° C. 150 μL of supernatant was collected and 25 μL at of water was added. Samples were mixed and analyzed by LC-MS/MS.
990 μL mouse plasma aliquots from a common stock were spiked with 10 μL of 1 mM stock of one of seven SDC-TRAP samples identified in the table below. Each sample was mixed and divided into 250 μL aliquots, each representing time points 0, 15 minutes, 30 minutes or 1 hour. At the prescribed time point, 3×50 μL samples were each mixed with 200 μL of methanol containing internal standard and held on dry ice until all time point samples were extracted. The samples collectively were vortex mixed for 1.5 minutes at 1500 rpm, then centrifuged at 4400 rpm for 10 minutes at 8° C.

[9] = system: HER2; test: HER2 degradation in BT-474 cells (Example 3, Methods 1 and 2); format: cell-based, human
Text: This example illustrates how a HER2 degradation assay may be used as a test to determine and select Hsp90-targeting moieties suitable for use in SDC-TRAPs of the invention, and further illustrates the ability of SDC-TRAPs to target cells preferentially expressing Hsp90. Such a test may further be used to determine the Hsp90 binding ability of SDC-TRAPs of the invention, as well as through competitive binding assays and cell-based Hsp90 client protein degradation assays known in the art.
After treatment, each cytoplasmic sample is prepared from 1×10^6 cells by incubation of cell lysis buffer (#9803, Cell Signaling Technology) on ice for 10 minutes. The resulting supernatant used as the cytosol fractions is dissolved with sample buffer for SDS-PAGE and run on a SDS-PAGE gel, blotted onto a nitrocellulose membrane by using semi-dry transfer. Non-specific binding to nitrocellulose is blocked with 5% skim milk in TBS with 0.5% Tween at room temperature for 1 hour, then probed with anti-HER2/ErB2 mAb (rabbit IgG, #2242, Cell Signaling) and anti-Tubulin (T9026, Sigma) as housekeeping control protein. HRP-conjugated goat anti-rabbit IgG (H+L) and HRP-conjugated horse anti-mouse IgG (H+L) are used as secondary Ab (#7074#7076, Cell Signaling) and LumiGLO reagent, 20× Peroxide (#7003, Cell Signaling) is used for visualization. The Hsp90 client protein HER2 is degraded when cells are treated with Hsp90-targeting moieties or SDC-TRAPs of the invention.
BT-474 cells are plated in the interior 60 wells of a 96 well black clear bottom plate (20,000 cells/well) in DMEM medium, with DMEM media in the surrounding 36 wells, and incubated at 37° C. with 5% CO2 overnight. On the second day, concentration response curve source plates are produced (10 point, 3-fold dilution of compounds in DMSO) followed by a 1:30 dilution in an intermediate dilution plate containing DMEM. Compound is transferred from the intermediate plate to the cell plate at a dilution of 1:10. The cells are then incubated at 37° C. with 5% CO2 for 24 hours.
Cells are then fixed in 4% phosphate-buffered paraformaldehyde for 30 minutes at room temperature and then permeabilized by washing five times with 0.1% Triton X-100 in PBS for 5 minutes at room temperature on a shaker. […] Cells are washed five times with 0.1% Tween-20 in PBS for 5 minutes at room temperature on a shaker and incubated with fluorescently-labeled secondary antibody (LI-COR, #926-32211) diluted 1:1000 in blocking buffer, and DRAQ5 nuclear stain (Biostatus Limited, # DRAQ5) diluted 1:10,000, at room temperature on a shaker for 1 hour. Cells are washed 5 times with 0.1% Tween-20 in PBS for 5 minutes at room temperature on a shaker and imaged on a LI-COR Odyssey imaging station. The raw data is normalized to DRAQ5 and the HER2 EC50 is calculated using XLfit™.

[10] = system: HER2; test: HER2 degradation assay with BT-474 cell line (Example 12, FACS); format: cell-based, human

Question: With `CCc1c2c(nc3ccc(O)cc13)-c1cc3c(c(=O)n1C2)COC(=O)[C@]3(O)CC` [SN-38, reference compound] as the molecule, how does the IC50 [1] read?
Answer: > 10000 nM

Question: And the IC50 [2]?
Answer: < 10 nM

Question: What about the IC50 [3] of the same molecule?
Answer: 38 nM

Question: What about the “Metabolite Glucuronidation” value ([4]; Hepatocytes Dog) of the same molecule?
Answer: √

Question: And the “Metabolite Hydroxylation + glucuronidatiom” value ([4]; Hepatocytes Dog)?
Answer: —

Question: What about the “Metabolite Glucuronidation” value ([4]; Hepatocytes Human) of the same molecule?
Answer: √

Question: What about the “Metabolite Hydroxylation + glucuronidatiom” value ([4]; Hepatocytes Human) of the same molecule?
Answer: √

Question: What about the “Metabolite Glucuronidation” value ([4]; Hepatocytes Monkey) of the same molecule?
Answer: √

Question: And the “Metabolite Hydroxylation + glucuronidatiom” value ([4]; Hepatocytes Monkey)?
Answer: √

Question: And the “Metabolite Glucuronidation” value ([4]; Hepatocytes Mouse)?
Answer: √

Question: What about the “Metabolite Hydroxylation + glucuronidatiom” value ([4]; Hepatocytes Mouse) of the same molecule?
Answer: —

Question: And the “Metabolite Glucuronidation” value ([4]; Hepatocytes Rat)?
Answer: √

Question: What about the “Metabolite Hydroxylation + glucuronidatiom” value ([4]; Hepatocytes Rat) of the same molecule?
Answer: —

Question: What about the “Plasma Conc.” value [5] of the same molecule?
Answer: BQL

Question: And the “Tumor Conc.” value [5]?
Answer: BQL

Question: What about the “Media (5 μM) % Remaining 19 h (37° C.)” value [6] of the same molecule?
Answer: 52%

Question: And the “Media (5 μM) % Remaining 1 h (37° C.)*” value [6]?
Answer: 82%

Question: And the “Mass Retention” value ([7]; incubation 5 h, first table)?
Answer: 38.2%

Question: What about the “Mass Retention” value ([7]; same protocol, second table) of the same molecule?
Answer: 46.6%

Question: And the “% Remaining (1 h)” value [8]?
Answer: 63.5%

Question: What about the “Peak Area Ratio” value ([8]; 0 h) of the same molecule?
Answer: 0.0616

Question: What about the “Peak Area Ratio” value ([8]; 0.5 h) of the same molecule?
Answer: 4.13

Question: What about the “Peak Area Ratio” value ([8]; 1 h) of the same molecule?
Answer: 4.46

Question: What about the “Peak Area Ratio” value ([8]; […]) of the same molecule?
Answer: 1.37

Question: And the “Mouse (10 μM) % Remaining 1 h (37° C.)*” value [8]?
Answer: 64%

Question: For `CCc1c2c(nc3ccc(OC(=O)N(C)CCCCN4CCN(Cc5ccc(-n6c(O)nnc6-c6cc(C(C)C)c(O)cc6O)cc5)CC4)cc13)-c1cc3c(c(=O)n1C2)COC(=O)C3(O)CC` (stereo not drawn) [SDC-TRAP-0044, 4,11-diethyl-4-hydroxy-3,14-dioxo-3,4,12,14-tetrahydro-1H-pyrano[3′,4′:6,7]indolizino[1,2-b]quinolin-9-yl (4-(4-(4-(3-(2,4-dihydroxy-5-isopropylphenyl)-5-hydroxy-4H-1,2,4-triazol-4-yl)benzyl)piperazin-1-yl)butyl)(methyl)carbamate], which IC50 [9] is on record?
Answer: 0.602 µM

Question: And the IC50 [10]?
Answer: 0.602 µM

Question: And the “Media (5 μM) % Remaining 19 h (37° C.)” value [6]?
Answer: 41%

Question: And the “Media (5 μM) % Remaining 1 h (37° C.)*” value [6]?
Answer: 50%

Question: And the “% Remaining (1 h)” value [8]?
Answer: 60.6%

Question: What about the “% Remaining (1 h, 37° C.)” value ([8]; 1 h) of the same molecule?
Answer: 61%

Question: What about the “Mouse (10 μM) % Remaining 1 h (37° C.)*” value [8] of the same molecule?
Answer: 61%

Question: With `CCc1c2c(nc3ccc(O)cc13)-c1cc3c(c(=O)n1C2)COC(=O)C3(CC)OC(=O)N1CCN(Cc2ccc(-n3c(O)nnc3-c3cc(C(C)C)c(O)cc3O)cc2)CC1` (stereo not drawn) [SDC-TRAP-0047, 4,11-diethyl-9-hydroxy-3,14-dioxo-3,4,12,14-tetrahydro-1H-pyrano[3′,4′:6,7]indolizino[1,2-b]quinolin-4-yl 4-(4-(3-(2,4-dihydroxy-5-isopropylphenyl)-5-hydroxy-4H-1,2,4-triazol-4-yl)benzyl)piperazine-1-carboxylate] as the molecule, how does the IC50 [9] read?
Answer: 0.875 µM

Question: And the IC50 [10]?
Answer: 0.875 µM

Question: What about the “% Remaining (1 h)” value [8] of the same molecule?
Answer: 88.9%

Question: And the “% Remaining (1 h, 37° C.)” value ([8]; 1 h)?
Answer: 89%

Question: For `CCc1c2c(nc3ccc(OC(=O)N4CCC(Cc5ccc(-n6c(O)nnc6-c6cc(C(C)C)c(O)cc6O)cc5)CC4)cc13)-c1cc3c(c(=O)n1C2)COC(=O)C3(O)CC` (stereo not drawn) [SDC-TRAP-0031, 4,11-diethyl-4-hydroxy-3,14-dioxo-3,4,12,14-tetrahydro-1H-pyrano[3′,4′:6,7]indolizino[1,2-b]quinolin-9-yl 4-(4-(3-(2,4-dihydroxy-5-isopropylphenyl)-5-hydroxy-4H-1,2,4-triazol-4-yl)benzyl)piperidine-1-carboxylate], which IC50 [9] is on record?
Answer: 2.92 µM

Question: And the IC50 [10]?
Answer: 1.27 µM

Question: Which IC50 [9] does the source give for `CCc1c2c(nc3ccc(O)cc13)-c1cc3c(c(=O)n1C2)COC(=O)C3(CC)OC(=O)CCC(=O)N1CCC(Cc2ccc(-n3c(O)nnc3-c3cc(C(C)C)c(O)cc3O)cc2)CC1` (stereo not drawn) [SDC-TRAP-0042, 4,11-diethyl-9-hydroxy-3,14-dioxo-3,4,12,14-tetrahydro-1H-pyrano[3′,4′:6,7]indolizino[1,2-b]quinolin-4-yl 4-(4-(4-(3-(2,4-dihydroxy-5-isopropylphenyl)-5-hydroxy-4H-1,2,4-triazol-4-yl)benzyl)piperidin-1-yl)-4-oxobutanoate] here?
Answer: 1.06 µM

Question: What about the IC50 [10] of the same molecule?
Answer: 1.06 µM

Question: And the “% Remaining (1 h)” value [8]?
Answer: 73.9%

Question: And the “% Remaining (1 h, 37° C.)” value ([8]; 1 h)?
Answer: 74%
